The values below come from patent US20130046025A1, “COMPOSITION WITH LOW SKIN IRRITATION FOR TRANSDERMAL DELIVERY OF TOLTERODINE” (SK Chemicals Co., Ltd., priority 2010, published 2013).

SMILES strings stand for the structures.

This series has as its system forearm skin of a test subject. Description: Skin irritation test of patches (primary skin irritation index). The format is in vivo. To be noted: for Effect on relief of skin irritation caused by tolterodine, result in words: conclusion from Table 4, essential oil in tolterodine patch. Here is the method: Each of the patches produced in Production Examples 1 and 2 was cut to a size of 1 cm×1 cm. The specimen was attached to the forearm skin of a test subject and fixed with a medical tape to prevent detachment during the test period. After 24 hr, the medical tape and the patch were removed with care. After 1 hr, the primary skin irritation index of the patch for skin irritations including erythema and edema was determined with the help of an expert.
Skin irritation tests were conducted in the same manner as in Test Example 1.

As for `CC(C)=CCC[C@](C)(O)C1CC=C(C)CC1` (stereo partly drawn) [bisabolol], the “Effect on relief of skin irritation caused by tolterodine, result in words” value is reported as “outstanding effects on skin irritation relief”.

As to `C=CCc1ccc(O)c(OC)c1` [eugenol], the “Effect on relief of skin irritation caused by tolterodine, result in words” value was “outstanding effects on skin irritation relief”.

In the case of `Cc1ccc(O)c([C@H](CCN(C(C)C)C(C)C)c2ccccc2)c1` [tolterodine, 2-[(1R)-3-(diisopropylamino)-1-phenylpropyl)-4-methylphenol], the “Skin irritation (erythema, edema), result in words” value (conclusion from Table 2) is on record as “causing skin irritations”.
